Source: patent US6982362B1, “α-tocopherol transport protein knockout animal” (priority 1999, dated 2006)

Test: Plasma α-tocopherol levels in mice fed with α-tocopherol (HPLC)
Type: in vivo, mouse
Details: fed α-tocopherol 82 μmol/kg from 4 weeks of age, time course FIG. 7
Experimental: Each of the homozygous α-TTP-deficient, heterozygous α-TTP-deficient and wild-type mice was fed with α-tocopherol at a concentration of 82 μmol/kg from 4 weeks of age. All mice were then assayed for their plasma α-tocopherol levels according to the method of Kim, H. S. et al. (Free Rad. Res. 28, 87–92, 1998). More specifically, 50 μl of mouse plasma collected using heparin was diluted with 950 Pl of PBS, mixed with 1 ml of 6% pyrogarol in EtOH, and then allowed to stand at 70° C. for 2 minutes. After addition of 60% KOH (0.2 ml), the mixture was saponified at 70° C. for 30 minutes, vortexed with 5 ml of n-hexane and 2.5 ml of H2O, and then centrifuged to collect the n-hexane layer (4 ml). The layer was evaporated and dissolved in […] of ethanol, followed by HPLC analysis. HPLC was performed under the following conditions: column: IRIKA RP18 (250×4 mm), mobile phase: MeOH/H2O/NaClO4 (1000/2/7, v/v/w), detection: IRIKA Amperometric E-520 detector. Tocol was used as an internal standard.

Q: Which results are given for `Cc1c(C)c2c(c(C)c1O)CC[C@@](C)(CCC[C@H](C)CCC[C@H](C)CCCC(C)C)O2` [α-tocopherol]?
A: plasma α-tocopherol level as compared with the wild-type mice (heterozygous α-TTP-deficient mice): about one-half; plasma α-tocopherol level (homozygous α-TTP-deficient mice): under the detection limit
